Source: ChEMBL document CHEMBL5696442, “Discovery of type II inhibitors of TGFβ-activated kinase 1 (TAK1) and mitogen-activated protein kinase kinase kinase kinase 2 (MAP4K2)” (J Med Chem, 2015)
Activity calls are given as the source filed them. The calls are words filed in the database; no cut-off is given here.

Columns and labels:
[1] = target: Serine/threonine-protein kinase 17B (Homo sapiens) (UniProt O94768); experiment: Inhibition of DRAK2 (unknown origin) at 10 uM by Ambit Kinomescan binding assay
[2] = target: T1, Dual specificity mitogen-activated protein kinase kinase 4 (Homo sapiens) (UniProt P45985); experiment: Inhibition of MAP2K4 Lys1 labeling site in human A-375 cells at 0.5 uM by KiNativ Profiling analysis relative to control; assay type: cell-based
T1 sequence (whole entry): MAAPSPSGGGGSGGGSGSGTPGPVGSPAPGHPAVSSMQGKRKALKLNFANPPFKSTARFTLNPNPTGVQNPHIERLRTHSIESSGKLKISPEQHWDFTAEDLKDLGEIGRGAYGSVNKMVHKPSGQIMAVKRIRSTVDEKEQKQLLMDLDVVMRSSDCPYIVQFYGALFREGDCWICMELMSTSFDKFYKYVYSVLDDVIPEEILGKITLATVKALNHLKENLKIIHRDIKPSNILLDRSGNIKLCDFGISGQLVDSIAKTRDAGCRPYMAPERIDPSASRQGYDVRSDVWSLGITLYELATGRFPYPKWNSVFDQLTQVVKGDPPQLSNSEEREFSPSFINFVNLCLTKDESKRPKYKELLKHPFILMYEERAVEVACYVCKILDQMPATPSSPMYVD

[3] = target: Rho-associated protein kinase 1 (Homo sapiens) (UniProt Q13464); experiment: Inhibition of ROCK1 in human Huh-7 cells at 10 uM by KiNativ Profiling analysis relative to control; assay type: cell-based
[4] = target: T2, Interleukin-1 receptor-associated kinase 4 (Homo sapiens) (UniProt Q9NWZ3); experiment: Inhibition of IRAK4 K2 labeling site in human Huh-7 cells at 1 uM by KiNativ Profiling analysis relative to control; assay type: cell-based
T2 sequence (whole entry): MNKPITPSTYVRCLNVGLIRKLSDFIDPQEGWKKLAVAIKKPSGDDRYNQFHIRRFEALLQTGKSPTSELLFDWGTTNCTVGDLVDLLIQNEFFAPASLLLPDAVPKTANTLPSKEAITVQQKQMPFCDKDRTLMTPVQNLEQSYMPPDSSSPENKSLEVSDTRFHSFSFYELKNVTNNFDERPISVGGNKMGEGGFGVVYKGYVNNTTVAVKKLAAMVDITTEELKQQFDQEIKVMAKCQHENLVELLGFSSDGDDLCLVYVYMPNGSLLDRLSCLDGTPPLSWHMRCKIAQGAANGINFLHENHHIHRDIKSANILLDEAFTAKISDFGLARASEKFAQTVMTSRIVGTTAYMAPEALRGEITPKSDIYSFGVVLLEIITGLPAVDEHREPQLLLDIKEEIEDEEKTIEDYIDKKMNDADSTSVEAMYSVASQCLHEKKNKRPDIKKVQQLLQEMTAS

[5] = target: Mitogen-activated protein kinase kinase kinase 1 (Homo sapiens) (UniProt Q13233); experiment: Inhibition of MAP3K1 Lys2 labeling site in human Huh-7 cells at 1 uM by KiNativ Profiling analysis relative to control; assay type: cell-based
[6] = system: Epidermal growth factor receptor (Homo sapiens), P00533 [L861Q]; experiment: Inhibition of EGFR L861Q mutant (unknown origin) at 1 uM by Ambit Kinomescan binding assay relative to control
[7] = target: T3, Acylglycerol kinase, mitochondrial (Homo sapiens) (UniProt Q53H12); experiment: Inhibition of AGK ATP labeling site in human A-375 cells at 5 uM by KiNativ Profiling analysis relative to control; assay type: cell-based
T3 sequence (whole entry): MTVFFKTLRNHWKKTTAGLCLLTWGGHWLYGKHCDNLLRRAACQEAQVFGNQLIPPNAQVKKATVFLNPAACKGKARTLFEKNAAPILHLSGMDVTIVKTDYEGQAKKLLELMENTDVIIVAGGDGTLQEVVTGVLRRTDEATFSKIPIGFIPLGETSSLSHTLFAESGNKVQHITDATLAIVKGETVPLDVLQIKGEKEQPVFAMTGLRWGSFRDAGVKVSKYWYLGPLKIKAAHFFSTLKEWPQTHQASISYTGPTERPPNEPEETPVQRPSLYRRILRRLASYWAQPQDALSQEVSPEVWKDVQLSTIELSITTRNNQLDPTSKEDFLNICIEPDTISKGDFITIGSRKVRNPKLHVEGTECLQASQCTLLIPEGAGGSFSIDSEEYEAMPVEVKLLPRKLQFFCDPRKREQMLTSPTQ

[8] = target: Serine/threonine-protein kinase 25 (Homo sapiens) (UniProt O00506); experiment: Inhibition of YSK1 (unknown origin) at 1 uM by Ambit Kinomescan binding assay relative to control; values are per cent of control
[9] = target: Cyclin-dependent kinase-like 3 (Homo sapiens) (UniProt Q8IVW4); experiment: Inhibition of CDKL3 (unknown origin) at 1 uM by Ambit Kinomescan binding assay relative to control; values are per cent of control
[10] = target: Serine/threonine-protein kinase MRCK gamma (Homo sapiens) (UniProt Q6DT37); experiment: Inhibition of DMPK2 (unknown origin) at 1 uM by Ambit Kinomescan binding assay relative to control; values are per cent of control
[11] = target: Glycogen synthase kinase-3 alpha (Homo sapiens) (UniProt P49840); experiment: Inhibition of GSK3A (unknown origin) at 1 uM by Ambit Kinomescan binding assay relative to control; values are per cent of control
[12] = target: Homeodomain-interacting protein kinase 3 (Homo sapiens) (UniProt Q9H422); experiment: Inhibition of HIPK3 (unknown origin) at 1 uM by Ambit Kinomescan binding assay relative to control; values are per cent of control

Rho-associated protein kinase 1 (Homo sapiens), sequence (Q13464 2-1354 limits assumed): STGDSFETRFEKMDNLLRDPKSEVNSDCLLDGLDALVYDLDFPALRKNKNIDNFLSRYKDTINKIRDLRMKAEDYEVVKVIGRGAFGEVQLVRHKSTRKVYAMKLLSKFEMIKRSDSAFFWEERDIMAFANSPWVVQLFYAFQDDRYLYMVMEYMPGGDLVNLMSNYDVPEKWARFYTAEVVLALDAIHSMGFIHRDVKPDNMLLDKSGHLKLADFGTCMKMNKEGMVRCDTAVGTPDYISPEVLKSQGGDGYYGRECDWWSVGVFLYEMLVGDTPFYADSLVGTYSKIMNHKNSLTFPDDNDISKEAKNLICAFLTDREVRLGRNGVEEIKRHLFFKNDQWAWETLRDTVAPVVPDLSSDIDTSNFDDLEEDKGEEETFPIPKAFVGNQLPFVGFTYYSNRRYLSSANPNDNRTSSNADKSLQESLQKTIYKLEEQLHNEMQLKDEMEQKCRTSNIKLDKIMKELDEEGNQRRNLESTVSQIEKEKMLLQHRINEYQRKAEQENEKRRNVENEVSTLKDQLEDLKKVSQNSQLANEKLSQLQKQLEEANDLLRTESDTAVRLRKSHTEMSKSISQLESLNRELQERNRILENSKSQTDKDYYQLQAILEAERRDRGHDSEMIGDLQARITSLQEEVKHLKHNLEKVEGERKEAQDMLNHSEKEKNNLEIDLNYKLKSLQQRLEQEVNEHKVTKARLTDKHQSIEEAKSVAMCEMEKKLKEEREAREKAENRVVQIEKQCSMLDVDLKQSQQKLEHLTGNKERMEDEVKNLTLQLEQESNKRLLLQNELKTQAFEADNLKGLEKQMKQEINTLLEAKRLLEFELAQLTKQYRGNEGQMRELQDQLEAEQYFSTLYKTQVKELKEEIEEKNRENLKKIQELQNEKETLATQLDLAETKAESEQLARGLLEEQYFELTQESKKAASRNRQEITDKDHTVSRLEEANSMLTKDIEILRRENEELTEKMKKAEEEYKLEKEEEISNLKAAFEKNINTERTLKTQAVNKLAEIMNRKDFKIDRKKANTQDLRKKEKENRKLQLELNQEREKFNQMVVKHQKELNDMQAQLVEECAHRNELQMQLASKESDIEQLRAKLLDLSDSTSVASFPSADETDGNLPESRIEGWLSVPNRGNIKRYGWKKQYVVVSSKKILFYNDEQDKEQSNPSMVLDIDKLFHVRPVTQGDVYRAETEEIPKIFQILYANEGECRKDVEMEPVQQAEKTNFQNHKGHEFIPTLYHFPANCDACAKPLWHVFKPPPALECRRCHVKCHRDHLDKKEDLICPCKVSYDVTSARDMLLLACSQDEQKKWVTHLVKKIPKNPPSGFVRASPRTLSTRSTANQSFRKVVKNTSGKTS
Serine/threonine-protein kinase 25 (Homo sapiens), sequence (O00506 whole entry, looked up): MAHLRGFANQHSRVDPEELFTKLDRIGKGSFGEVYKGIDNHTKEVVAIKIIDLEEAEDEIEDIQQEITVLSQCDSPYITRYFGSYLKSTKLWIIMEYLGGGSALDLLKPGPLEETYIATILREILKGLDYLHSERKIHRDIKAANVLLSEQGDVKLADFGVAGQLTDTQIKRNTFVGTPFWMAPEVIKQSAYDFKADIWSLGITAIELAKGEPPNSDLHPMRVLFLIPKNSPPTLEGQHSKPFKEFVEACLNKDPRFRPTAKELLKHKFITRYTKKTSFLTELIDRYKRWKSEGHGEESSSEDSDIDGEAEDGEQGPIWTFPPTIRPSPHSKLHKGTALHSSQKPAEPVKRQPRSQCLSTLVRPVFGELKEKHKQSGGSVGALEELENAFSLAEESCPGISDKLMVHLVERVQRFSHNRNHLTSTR
Serine/threonine-protein kinase 17B (Homo sapiens), sequence (O94768 whole entry): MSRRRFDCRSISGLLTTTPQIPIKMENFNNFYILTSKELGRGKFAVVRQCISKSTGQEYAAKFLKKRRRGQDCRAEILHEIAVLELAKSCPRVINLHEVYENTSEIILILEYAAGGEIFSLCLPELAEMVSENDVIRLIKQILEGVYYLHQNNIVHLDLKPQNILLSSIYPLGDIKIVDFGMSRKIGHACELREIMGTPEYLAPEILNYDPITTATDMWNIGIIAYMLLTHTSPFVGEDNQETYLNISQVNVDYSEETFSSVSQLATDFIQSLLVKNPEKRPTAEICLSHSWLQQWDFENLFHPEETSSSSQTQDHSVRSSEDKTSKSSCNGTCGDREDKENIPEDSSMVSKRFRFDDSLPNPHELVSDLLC
Mitogen-activated protein kinase kinase kinase 1 (Homo sapiens), sequence (Q13233 whole entry): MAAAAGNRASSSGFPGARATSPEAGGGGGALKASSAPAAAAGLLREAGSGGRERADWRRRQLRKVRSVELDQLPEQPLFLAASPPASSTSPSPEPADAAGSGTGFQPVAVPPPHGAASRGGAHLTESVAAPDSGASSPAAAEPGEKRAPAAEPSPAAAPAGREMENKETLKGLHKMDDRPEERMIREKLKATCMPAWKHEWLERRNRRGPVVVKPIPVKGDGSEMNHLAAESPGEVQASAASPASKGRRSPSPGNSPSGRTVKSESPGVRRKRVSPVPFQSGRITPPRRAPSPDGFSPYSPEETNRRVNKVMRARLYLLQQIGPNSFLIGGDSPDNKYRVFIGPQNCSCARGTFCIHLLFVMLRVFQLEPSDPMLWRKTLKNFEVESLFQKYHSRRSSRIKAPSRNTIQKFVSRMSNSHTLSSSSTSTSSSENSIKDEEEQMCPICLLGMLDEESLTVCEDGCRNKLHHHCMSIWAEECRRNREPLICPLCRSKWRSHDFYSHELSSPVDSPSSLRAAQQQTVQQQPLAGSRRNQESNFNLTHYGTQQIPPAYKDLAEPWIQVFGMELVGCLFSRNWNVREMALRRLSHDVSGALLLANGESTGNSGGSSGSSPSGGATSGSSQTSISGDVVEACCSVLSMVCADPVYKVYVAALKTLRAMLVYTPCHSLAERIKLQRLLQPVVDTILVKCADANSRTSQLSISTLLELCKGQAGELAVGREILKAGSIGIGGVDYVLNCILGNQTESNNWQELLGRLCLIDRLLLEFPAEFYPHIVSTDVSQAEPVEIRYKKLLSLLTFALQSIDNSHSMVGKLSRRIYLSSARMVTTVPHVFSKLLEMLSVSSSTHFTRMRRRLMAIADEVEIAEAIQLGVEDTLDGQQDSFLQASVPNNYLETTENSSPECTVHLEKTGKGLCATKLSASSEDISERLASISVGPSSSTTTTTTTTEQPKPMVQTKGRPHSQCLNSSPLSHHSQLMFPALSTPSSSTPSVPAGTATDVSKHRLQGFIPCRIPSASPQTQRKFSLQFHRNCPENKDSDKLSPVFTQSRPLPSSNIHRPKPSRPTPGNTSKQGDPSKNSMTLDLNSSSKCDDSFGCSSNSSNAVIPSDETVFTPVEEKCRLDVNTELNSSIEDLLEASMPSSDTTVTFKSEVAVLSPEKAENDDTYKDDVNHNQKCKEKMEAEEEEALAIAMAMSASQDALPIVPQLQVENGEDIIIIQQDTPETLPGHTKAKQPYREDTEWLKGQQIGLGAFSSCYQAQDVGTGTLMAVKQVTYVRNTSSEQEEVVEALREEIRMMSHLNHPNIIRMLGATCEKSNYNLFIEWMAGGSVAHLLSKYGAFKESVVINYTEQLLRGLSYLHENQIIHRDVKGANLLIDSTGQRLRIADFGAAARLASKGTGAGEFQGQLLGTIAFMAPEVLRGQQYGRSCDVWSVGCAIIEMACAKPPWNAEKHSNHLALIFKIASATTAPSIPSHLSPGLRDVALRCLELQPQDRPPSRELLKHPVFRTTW
Cyclin-dependent kinase-like 3 (Homo sapiens), sequence (Q8IVW4 whole entry, looked up): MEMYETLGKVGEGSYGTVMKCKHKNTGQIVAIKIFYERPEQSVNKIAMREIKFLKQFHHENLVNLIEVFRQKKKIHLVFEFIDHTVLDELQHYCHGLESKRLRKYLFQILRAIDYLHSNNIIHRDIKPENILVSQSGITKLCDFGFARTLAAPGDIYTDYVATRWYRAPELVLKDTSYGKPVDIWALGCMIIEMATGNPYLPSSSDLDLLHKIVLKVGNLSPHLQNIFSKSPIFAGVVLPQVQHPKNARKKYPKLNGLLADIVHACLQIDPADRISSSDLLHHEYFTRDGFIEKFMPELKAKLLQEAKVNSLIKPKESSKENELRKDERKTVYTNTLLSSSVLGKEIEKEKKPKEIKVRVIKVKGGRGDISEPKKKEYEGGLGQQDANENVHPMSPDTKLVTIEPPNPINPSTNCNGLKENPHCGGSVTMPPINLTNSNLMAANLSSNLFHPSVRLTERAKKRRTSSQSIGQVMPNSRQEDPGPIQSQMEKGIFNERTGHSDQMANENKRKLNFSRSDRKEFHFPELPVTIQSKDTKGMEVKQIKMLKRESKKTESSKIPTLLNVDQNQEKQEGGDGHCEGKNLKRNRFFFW
Glycogen synthase kinase-3 alpha (Homo sapiens), sequence (P49840 2-483 limits assumed): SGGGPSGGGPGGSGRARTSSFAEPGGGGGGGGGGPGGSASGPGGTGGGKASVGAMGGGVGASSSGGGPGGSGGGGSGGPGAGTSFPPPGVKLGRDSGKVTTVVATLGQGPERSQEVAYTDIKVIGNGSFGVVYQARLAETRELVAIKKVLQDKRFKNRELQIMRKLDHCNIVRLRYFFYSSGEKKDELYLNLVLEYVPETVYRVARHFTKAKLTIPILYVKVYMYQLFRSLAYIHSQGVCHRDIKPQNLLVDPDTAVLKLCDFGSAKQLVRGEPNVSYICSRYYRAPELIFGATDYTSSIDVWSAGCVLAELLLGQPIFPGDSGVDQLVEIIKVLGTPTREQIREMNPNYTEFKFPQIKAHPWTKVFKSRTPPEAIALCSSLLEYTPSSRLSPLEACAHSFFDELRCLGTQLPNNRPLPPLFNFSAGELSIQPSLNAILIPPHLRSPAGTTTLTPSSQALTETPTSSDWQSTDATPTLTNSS

CCN1CCN(Cc2ccc(NC(=O)c3ccc(C)c(Oc4ccnc5[nH]ccc45)c3)cc2C(F)(F)F)CC1
inhibition [1]: inactive
inhibition [2]: -4%
inhibition [3]: 7.5%
inhibition [4]: -9.1%

CNc1cc(Oc2cc(C(=O)Nc3cc(N4CCN(C)CC4)cc(C(F)(F)F)c3)ccc2C)ncn1
inhibition [5]: 27%

CCN1CCN(Cc2ccc(NC(=O)c3ccc(C)c(/C=C/c4cnc5[nH]ccc5c4OC)c3)cc2C(F)(F)F)CC1
inhibition [6]: 0.25%
inhibition [7]: 9.9%
percent of control [8]: 100%
residual activity [9]: 50%
residual activity [10]: 76%
residual activity [11]: 100%
residual activity [12]: 80%
